A short description of data set [1]: Conductivity measurements of transport buffers. In kind it is physicochemical. As to conditions: for Average/Std. Deviation / Measurement 1 / Measurement 2 / Measurement 3: conductivity.
Data set [2] has as its system btrRCA5 to ATA5 capture oligonucleotide. Description: Accumulation and electronic hybridization in test buffers. As to conditions: for support of sequence specific electronic hybridization: in words; for hybridization efficiency: [(specific hybridization)/(transported)] × 100; for transported: fluorescent signal at completion of electronic targeting; for transported / specific hybridization: value +/− SEM, 50 mM buffer. Here is the method:
Microelectronic Chips, Permeation Layer and Instrumentation—These have been described previously with the following exception. The permeation layer employed herein has an underlayer of agarose beneath the top streptavidin-containing agarose layer (approximately one micron in total thickness). To make the underlayer, […] glyoxal agarose (2%) was spun on at 2000 rpms for 20 sec prior to the application of the streptavidin-agarose layer. In brief, the 5580 series APEX chip used for these experiments consists of a 5×5 array of […] circular microelectrodes with […] microelectrodes at each corner of the array. Chips were mounted on a micromanipulator stage and the microelectrodes activated by a power supply and appropriately controlled relay switches. Fluorescently labeled oligonucleotides on the chip were visualized using oblique illumination with two 594 nm HeNe lasers and the images were quantified using either NIH Image or IPLab Spectrum software packages.
Accumulation and Hybridization—Two biotinylated capture oligonucleotides, ATA5 and ATA4 were electronically transported and localized at adjacent microelectrodes. The solution was removed and the chip washed 3-4× in test buffer. Buffers employed in these studies are listed in Table 3 and were utilized at the listed pH values and concentrations presented.
The L-isomers of amino acids were used, unless otherwise noted. The chip was equilibrated in test buffer for 5-10 min. Then fresh buffer containing 10 nM BODIPY-Texas Red labeled RCA5 (btrRCA5), an oligonucleotide complementary to ATA5 but not ATA4 (RS paper) was applied.
The […] microelectrodes were employed as cathodes and one microelectrode within the array used as the corresponding anode. Accumulation was assessed by sourcing a 500 nA constant current to individual microelectrodes for 30 sec and monitoring the accumulation of fluorescence at the positively-biased (anode) site in the microelectrode array. Signal arising from non-fluorescent sources (ie. thermal noise, etc.) was subtracted. Experiments examining the effect of different currents upon signal accumulation were conducted in a similar fashion except that the applied current varied from 100 nA to 1 mA. […] For the comparison between conductivities of various buffers, the data is presented as fold increase over initial fluorescence to account for chip-to-chip variation as well as laser illumination variations in signal levels. For other experiments, the data is presented as attomol product versus time, after converting^2 the observed fluorescence intensity to moles of labeled oligonucleotide.
Following accumulation at one microelectrode location, the buffer was removed and fresh buffer containing btrRCA5 applied. An adjacent microelectrode was then sourced in a similar fashion. Upon completion, the buffer was removed and the chip washed 5-7× with test buffer without btrRCA5. The pair of previously targeted microelectrodes were then illuminated and the fluorescence present at each site quantified. Control experiments utilized a bodipy-Texas Red labeled oligonucleotide complementary to ATA4 to verify the integrity and concentration of the ATA4 capture oligonucleotide. Percent hybridization efficiency was calculated as follows: (complementary oligonucleotide signal−noncomplementary signal)/(signal present immediately prior to the end of the applied current)×100.

For data set [3] the following is noted: cited from earlier work; for pl: Table 3.
Data set [4] in a line: Buffer conductivity and pH measurements. In kind it is physicochemical. Set-up: conductivity: unit not given here. The note with it: for conductivity: RT; for pH: in water at room temperature. Here is the method:
Buffer Conductivity and pH Measurements—The conductivities of test buffer solutions utilized for transport and hybridization were measured at RT using an Accumet 1.0 cm^−1 glass conductivity cell connected to an Accumet Model 50 pH/Ion/Conductivity meter (Fisher Scientific). Buffer pH values were obtained using an Accu-pHast variable temperature combination electrode and the same model meter.

The nature of data set [5]: Buffer capacity, pH and conductivity of buffers used on the APEX chip. As to conditions: for PH: NaPO4: 20 mM adjusted to pH 7.4.
Another data set has as its system DNA. Description: DNA transport (accumulation) on the APEX chip. As to conditions: in words, same field conditions.

For the compound `[Cl-].[Na+]` [10 mM NaCl, NaCl], in data set [1], the “Average/Std. Deviation” value was 1.12 +/− 0.057 mS/cm, the “Measurement 1” value worked out at 1.07 mS/cm, the “Measurement 2” value came out at 1.10 mS/cm and the “Measurement 3” value is reported as 1.18 mS/cm. In addition, in data set [1] (listed as 0.1 mM NaCl), the “Average/Std. Deviation” value was 9.43 +/− 0.93 μS/cm, the “Measurement 1” value is 8.80 μS/cm, the “Measurement 2” value turned out to be 8.98 μS/cm and the “Measurement 3” value is 10.5 μS/cm. Also, in data set [1] (listed as 1 mM NaCl), the “Average/Std. Deviation” value is listed as 112.7 +/− 2.08 μS/cm, the “Measurement 1” value stood at 112 μS/cm, the “Measurement 2” value was 115 μS/cm and the “Measurement 3” value came out at 111 μS/cm.

Take `NCC(=O)O` [glycine]: in data set [2], the “support of sequence specific electronic hybridization” value is given as “neither GABA, b-alanine, nor glycine was capable of supporting sequence specific hybridization”. The pl in data set [3] is given as 5.97. In addition, the conductivity is recorded as 2.5 +/− 0.2 in data set [4] (50 mM) and 7.8 +/− 0.5 in data set [4] (250 mM). Also, the pH turned out to be 6.01 in data set [4] (50 mM) and 6.11 in data set [4] (250 mM).

For `Cn1cncc1C[C@H](N)C(=O)O` [1(π)-methylhistidine], in data set [2], the hybridization efficiency amounted to 21.3, the transported is on record as 141 +/− 20 and the specific hybridization is 30.0 +/− 5.0 attomol. Besides, the pl in data set [3] is 7.54. Also, in data set [4] (50 mM), the conductivity was 117 +/− 2.8 and the pH worked out at 7.59.

Consider `NCCC(=O)O` [β-Alanine], for which the “support of sequence specific electronic hybridization” value in data set [2] is listed as “neither GABA, b-alanine, nor glycine was capable of supporting sequence specific hybridization”. In data set [3] (Table 2), the pK1 result was “pK1 - 3.6” and the pK2 entry is recorded as “pK2 - 10.2”. Further, the pl in data set [3] is on record as 6.90. For the same compound, in data set [5], the conductivity was 10.0 μS and the PH turned out to be 7.3. For the same compound, the transport entry with DNA is “excellent transport”. Also, in data set [4] (50 mM), the conductivity is 3.6 +/− 0.6 and the pH worked out at 6.71.

Turning to `O=C([O-])C(=O)[O-].[Na+].[Na+]` [5 mM NaOxalate], in data set [1], the “Average/Std. Deviation” value was 1.06 +/− 0.055 mS/cm, the “Measurement 1” value is given as 1.02 mS/cm, the “Measurement 2” value was determined as 1.03 mS/cm and the “Measurement 3” value was 1.12 mS/cm.

Consider `[Cl-].[Cl-].[Mg+2]` [10 mM MgCl2, MgCl2], for which, in data set [1], the “Average/Std. Deviation” value was 2.03 +/− 0.09 mS/cm, the “Measurement 1” value is given as 1.95 mS/cm, the “Measurement 2” value came to 2.02 mS/cm and the “Measurement 3” value was determined as 2.13 mS/cm. In data set [1] (listed as 0.1 mM MgCl2), the “Average/Std. Deviation” value is listed as 17.3 +/− 0.87 μS/cm, the “Measurement 1” value amounted to 16.9 μS/cm, the “Measurement 2” value is given as 16.7 μS/cm and the “Measurement 3” value came out at 18.3 μS/cm. Also, in data set [1] (listed as 1 mM MgCl2), the “Average/Std. Deviation” value is on record as 186 +/− 18.8 μS/cm, the “Measurement 1” value is listed as 174 μS/cm, the “Measurement 2” value was 208 μS/cm and the “Measurement 3” value was found to be 177 μS/cm.

For `NCCC(=O)N[C@@H](Cc1cnc[nH]1)C(=O)O` [carnosine], in data set [2], the hybridization efficiency is listed as 26.1, the transported is 129 +/− 45 and the specific hybridization is listed as 33.7 +/− 12.1 attomol. For the same compound, in data set [3], the pl is listed as 8.17. In data set [4] (50 mM), the conductivity is 74.5 +/− 5.5 and the pH is reported as 8.07.

On to `Cc1cc(C)nc(C)c1` [collidine], for which, in data set [2], the hybridization efficiency was 3.7, the transported is 382 +/− 63 and the specific hybridization is on record as 14.1 +/− 4.6 attomol.

In the case of `N[C@@H](CCC(=O)O)C(=O)O` [glutamic acid], the pI in data set [3] is on record as 3.22.

Regarding `Cn1cnc(C[C@H](N)C(=O)O)c1` [3(τ)-methylhistidine], in data set [2], the hybridization efficiency is 20.8, the transported is listed as 259 +/− 48 and the specific hybridization was 54.0 +/− 14.8 attomol. In data set [3], the pl is given as 7.52. In addition, in data set [4] (50 mM), the conductivity is given as 39.4 +/− 0.4 and the pH came out at 7.44.

As for `N[C@H](Cc1c[nH]cn1)C(=O)O` [D-histidine], in data set [2], the hybridization efficiency is 24.3, the transported is listed as 490 +/− 50 and the specific hybridization is reported as 119 +/− 11.8 attomol. Besides, the pl in data set [3] is 7.47. In data set [4] (50 mM), the conductivity was 57.1 +/− 0.3 and the pH is reported as 7.70.

Turning to `NC(CO)(CO)CO` [50 mM TRIS, TRIS], in data set [1], the “Average/Std. Deviation” value was 3.35 +/− 0.19 mS/cm, the “Measurement 1” value is reported as 3.50 mS/cm, the “Measurement 2” value amounted to 3.14 mS/cm and the “Measurement 3” value worked out at 3.40 mS/cm. For the same compound, in data set [1] (listed as 10 mM TRIS), the “Average/Std. Deviation” value was 572 +/− 10.5 μS/cm, the “Measurement 1” value is 572 μS/cm, the “Measurement 2” value is 562 μS/cm and the “Measurement 3” value came out at 583 μS/cm.

On to `NCCS(=O)(=O)O` [Taurine], for which, in data set [5], the conductivity is on record as 4.5 μS and the PH worked out at 4.6. Further, the transport entry in the data set on DNA was “excellent transport”.

In data set [1], Tris-Borate [100 mM Tris-Borate] yielded a conductivity of 694 μS/cm.

As to `O=P(O)(O)O` [NaPO4, Sodium Phosphate], the conductance in data set [1] is reported as approximately 2.9 mS/cm. Moreover, in data set [1] (listed as 1 mM NaPO4), the “Average/Std. Deviation” value is recorded as 128.7 +/− 7.0 μS/cm, the “Measurement 1” value was 122 μS/cm, the “Measurement 2” value stood at 128 μS/cm and the “Measurement 3” value is given as 136 μS/cm. Besides, in data set [1] (listed as 10 mM NaPO4), the “Average/Std. Deviation” value was 1.44 +/− 0.04 mS/cm, the “Measurement 1” value is recorded as 1.40 mS/cm, the “Measurement 2” value came out at 1.44 mS/cm and the “Measurement 3” value was 1.48 mS/cm. In addition, in data set [1] (listed as 20 mM NaPO4), the “Average/Std. Deviation” value was 2.90 +/− 0.11 mS/cm, the “Measurement 1” value was 2.90 mS/cm, the “Measurement 2” value amounted to 2.79 mS/cm and the “Measurement 3” value turned out to be 3.00 mS/cm. Further, in data set [5], the conductivity was 1,400.0 μS and the PH turned out to be 7.4. Besides, in the data set with DNA, the transport entry was “fair transport”.

With `CC(=O)[O-].[Na+]` [10 mM NaAcetate], in data set [1], the “Average/Std. Deviation” value was 934 +/− 43.5 μS/cm, the “Measurement 1” value is given as 901 μS/cm, the “Measurement 2” value was found to be 917 μS/cm and the “Measurement 3” value is recorded as 983 μS/cm.

Turning to `c1ccncc1` [pyridine], in data set [2], the transported is 764 +/− 66 and the specific hybridization is reported as 12.8 +/− 4.2 attomol. Further, in data set [4] (50 mM), the conductivity was 5.0 +/− 0.8 and the pH was 8.17.

On to `N[C@@H](Cc1c[nH]cn1)C(=O)O` [L-histidine], for which, in data set [2], the “non-specific signal as compared to the amount of material transported” value was 2.2%, the hybridization efficiency is reported as 14.6, the transported is given as 533 +/− 65 and the specific hybridization is reported as 78.0 +/− 9.1 attomol. The pl in data set [3] is recorded as 7.47. Also, in data set [4] (50 mM), the conductivity is listed as 60.1 +/− 0.1 and the pH is 7.65.

Source of the values: patent US8114589B2, “Self-addressable self-assembling microelectronic integrated systems, component devices, mechanisms, methods, and procedures for molecular biological analysis and diagnostics” (Gamida For Life B.V., priority 1996, dated 2012).
